PMC4657098, “A Review of the Updated Pharmacophore for the Alpha 5 GABA(A) Benzodiazepine Receptor Model” (International Journal of Medicinal Chemistry, 2015)
Where “and” joins values, the source holds several entries; their conditions need not be identical. Equal entries are not always repeated. Where two headings read alike, the source gives them in different places.

Assays:
[1] = target: T1, α3β3γ2 GABAA/BzR (Homo sapiens, UniProt P18507+P34903); parameters: expressed in transfected cells; host or cells: LTK cells (given for XLi-093 only); conditions: cited from earlier work
[2] = target: T2, α5β3γ2 GABAA/BzR (Homo sapiens, UniProt P18507+P31644); parameters: expressed in transfected cells; host or cells: LTK cells (given for XLi-093 only); conditions: cited from earlier work
[3] = target: T3, α1β3γ2 GABAA/BzR (Homo sapiens, UniProt P14867+P18507); parameters: expressed in transfected cells; host or cells: LTK cells (given for XLi-093 only); conditions: cited from earlier work
[4] = target: T4, α4β3γ2 GABAA/BzR (Homo sapiens, UniProt P18507+P48169); conditions: cited from earlier work
T4 construct: expressed in transfected cells; host or cells: LTK cells (given for XLi-093 only)

[5] = target: T5, α2β3γ2 GABAA/BzR (Homo sapiens, UniProt P18507+P47869); parameters: expressed in transfected cells; host or cells: LTK cells (given for XLi-093 only); conditions: cited from earlier work
[6] = target: T6, α6β3γ2 GABAA/BzR (Homo sapiens, UniProt P18507+Q16445); parameters: expressed in transfected cells; host or cells: LTK cells (given for XLi-093 only); conditions: cited from earlier work
[7] = target: T1, α3β3γ2 GABAA/BzR; test: Competition binding to HEK cell membranes, α3β3γ2; parameters: expressed in transfected cells
[8] = target: T6, α6β3γ2 GABAA/BzR; test: Competition binding to HEK cell membranes, α6β3γ2; parameters: expressed in transfected cells
[9] = target: T3, α1β3γ2 GABAA/BzR; test: Competition binding to HEK cell membranes, α1β3γ2; parameters: expressed in transfected cells
[10] = target: T5, α2β3γ2 GABAA/BzR; test: Competition binding to HEK cell membranes, α2β3γ2; parameters: expressed in transfected cells
[11] = target: T2, α5β3γ2 GABAA/BzR; test: Competition binding to HEK cell membranes, α5β3γ2; parameters: expressed in transfected cells
[12] = test system: Bz BS of GABA(A) receptors; conditions: cited from earlier work
[13] = target: T4, α4β3γ2 GABAA/BzR; test: biochemical; format: binding
[14] = Figure 33, αxβ3γ2, read-out: Affinity Ki α6

For `C#CC#Cc1ccc2c(c1)C(=O)N1CCC[C@H]1c1c(C(=O)OCC)ncn1-2` [compound 8], the Ki ([1]; Figure 4, read-out: Ki α3) is listed as greater than 1000 nM, the Ki ([2]; Figure 4, read-out: Ki α5) is listed as 64 nM and the Ki ([3]; Figure 4, read-out: Ki α1) is listed as greater than 1000 nM. The Ki ([4]; Figure 4, read-out: Ki α4) was greater than 1000 nM, the Ki ([5]; Figure 4, read-out: Ki α2) was greater than 1000 nM and the Ki ([6]; Figure 4, read-out: Ki α6) was greater than 1000 nM.

For `CC(C)(C)OC(=O)c1cc2c(cn1)[nH]c1ccc(I)cc12` [29(iodo-βCCt)], the Ki ([1]; read-out: Affinity Ki α3) is given as 123 nM, the Ki ([2]; read-out: Affinity Ki α5) is given as 65.3 nM and the Ki ([3]; read-out: Affinity Ki α1) is given as 14.4 nM. The Ki ([4]; read-out: Affinity Ki α4) was greater than 4000 nM, the Ki ([5]; read-out: Affinity Ki α2) was 44.9 nM and the Ki ([6]; read-out: Affinity Ki α6) was greater than 4000 nM.

For `O=C(OCC(F)(F)F)c1cc2c(cn1)[nH]c1ccc(-c3ccccc3)cc12` [38(WYB29-2)], the Ki ([1]; read-out: Affinity Ki α3) is listed as 125 nM, the Ki ([2]; read-out: Affinity Ki α5) is listed as 299 nM and the Ki ([4]; read-out: Affinity Ki α4) is listed as 2000 nM. The Ki ([5]; read-out: Affinity Ki α2) was 137 nM and the Ki ([6]; read-out: Affinity Ki α6) was 2000 nM.

With `CC(C)(C)OC(=O)c1cc2c(cn1)[nH]c1ccc(-c3ccccc3)cc12` [WYS15] the Ki ([7]; Ki α3) was 44.3 nM, the Ki ([7]; read-out: Ki α3) was 44.3 nM and the Ki ([8]; Ki α6) was 5000 nM. For the same compound, the Ki ([1]; read-out: Affinity Ki α3) was 44.3 nM, the Ki ([9]; Ki α1) was 3.63 nM and the Ki ([9]; read-out: Ki α1) was 3.63 nM. The Ki ([10]; Ki α2) was 2.02 nM, the Ki ([10]; read-out: Ki α2) was 2.02 nM and the Ki ([2]; read-out: Affinity Ki α5) was 76.5 nM. For the same compound, the Ki ([3]; read-out: Affinity Ki α1) was 3.63 nM, the Ki ([5]; read-out: Affinity Ki α2) was 2.02 nM and the Ki ([11]; Ki α5) was 76.5 nM. It also gave a Ki ([11]; read-out: Ki α5) of 76.5 nM.

For `CC(C)(C)OC(=O)c1cc2c(cn1)[nH]c1ccc(-c3cccs3)cc12` [35(WYS12)], the Ki ([1]; read-out: Affinity Ki α3) is given as 314 nM, the Ki ([2]; read-out: Affinity Ki α5) is given as 2860 nM and the Ki ([3]; read-out: Affinity Ki α1) is given as 37 nM. For the same compound, the Ki ([5]; read-out: Affinity Ki α2) was 166 nM and the Ki ([6]; read-out: Affinity Ki α6) was 5000 nM.

In the case of `CN1C(=O)CN=C(c2ccccc2F)c2cc([N+](=O)[O-])ccc21` [FLUNITRAZEPAM, flunitrazepam], the modulation [12] is given as “agonist”.

In the case of `CCOC(=O)c1ncn2c1CN=C(c1ccccc1)c1cc(-c3ccccc3)ccc1-2` [DM-I-81 (9)], the Ki ([7]; Figure 17, read-out: Binding data Ki α3) is listed as greater than 2000 nM, the Ki ([8]; Figure 17, read-out: Binding data Ki α6) is listed as greater than 2000 nM and the Ki ([1]; Figure 4, read-out: Ki α3) is listed as greater than 2000 nM. The Ki ([9]; Figure 17, read-out: Binding data Ki α1) was greater than 2000 nM, the Ki ([10]; Figure 17, read-out: Binding data Ki α2) was greater than 2000 nM and the Ki ([3]; Figure 4, read-out: Ki α1) was greater than 2000 nM. The Ki ([13]; Figure 17, read-out: Binding data Ki α4) was greater than 2000 nM, the Ki ([4]; Figure 4, read-out: Ki α4) was greater than 2000 nM and the Ki ([5]; Figure 4, read-out: Ki α2) was greater than 2000 nM. For the same compound, the Ki ([6]; Figure 4, read-out: Ki α6) was greater than 2000 nM and the Ki ([11]; Figure 17, read-out: Binding data Ki α5) was 176 nM.

In the case of `CCc1c(C(=O)OC)ncc2[nH]c3cc(OC)c(OC)cc3c12` [DMCM, reference compound], the Ki ([7]; read-out: Ki α3) is given as 4 nM, the Ki ([8]; read-out: Ki α6) is given as 134 nM and the modulation [12] is given as “inverse agonist”. It also gave a Ki ([9]; read-out: Ki α1) of 5.69 nM, a Ki ([10]; read-out: Ki α2) of 8.29 nM and a Ki ([11]; read-out: Ki α5) of 1.04 nM.

Work on `CC(C)(C)OC(=O)c1cc2c(cn1)[nH]c1ccc(C(C)(C)C)cc12` [CM-A82a] yielded a Ki ([7]; Ki α3) of 24.5 nM, a Ki ([7]; read-out: Ki α3) of 24.5 nM and a Ki ([8]; Ki α6) of 1000 nM. For the same compound, the Ki ([1]; read-out: Affinity Ki α3) was 24.5 nM, the Ki ([9]; Ki α1) was 2.78 nM and the Ki ([9]; read-out: Ki α1) was 2.78 nM. The Ki ([10]; Ki α2) was 8.93 nM, the Ki ([10]; read-out: Ki α2) was 8.93 nM and the Ki ([2]; read-out: Affinity Ki α5) was 7.49 nM. For the same compound, the Ki ([3]; read-out: Affinity Ki α1) was 2.78 nM, the Ki [13] was 1000 nM and the Ki ([5]; read-out: Affinity Ki α2) was 8.93 nM. The Ki ([11]; Ki α5) was 7.49 nM and the Ki ([11]; read-out: Ki α5) was 7.49 nM.

In the case of `CC(C)(C)OC(=O)c1cc2c(cn1)[nH]c1ccc(-c3ccco3)cc12` [WYS13], the Ki ([7]; read-out: Ki α3) is listed as 27.5 nM, the Ki ([8]; read-out: Ki α6) is listed as 5000 nM and the Ki ([1]; read-out: Affinity Ki α3) is listed as 27.5 nM. The Ki ([9]; read-out: Ki α1) was 2.44 nM, the Ki ([10]; read-out: Ki α2) was 13 nM and the Ki ([2]; read-out: Affinity Ki α5) was 163 nM. The Ki ([3]; read-out: Affinity Ki α1) was 2.4 nM, the Ki ([5]; read-out: Affinity Ki α2) was 13 nM and the Ki ([6]; read-out: Affinity Ki α6) was 5000 nM. For the same compound, the Ki ([11]; read-out: Ki α5) was 163 nM.

In the case of `CCOC(=O)c1ncc2[nH]c3ccc(OCc4ccccc4)cc3c2c1COC` [ZK 93423, 6-(benzyloxy)-4-(methoxymethyl)-β-carboline-3-carboxylic acid ethyl ester, reference compound], the Ki ([7]; Ki α3) is given as 6 nM, the Ki ([8]; Ki α6) is given as 1000 nM and the modulation ([12]; Supplement Table 1) is given as “agonist”. For the same compound, the Ki ([9]; Ki α1) was 4.1 nM, the Ki ([10]; Ki α2) was 4.2 nM and the Ki ([11]; Ki α5) was 4.5 nM.

`C[Si](C)(C)C#Cc1ccc2[nH]c3cnc(C(=O)OCC(F)(F)F)cc3c2c1` [WY-B-25] gave a Ki ([7]; Ki α3) of 66 nM, a Ki ([8]; Ki α6) of 2000 nM and a Ki ([9]; Ki α1) of 7.6 nM. The Ki ([10]; Ki α2) was 40 nM, the Ki [13] was 2000 nM and the Ki [6, 14] was greater than 3000 nM. For the same compound, the Ki ([11]; Ki α5) was 263 nM.

In the case of `C#Cc1ccc2[nH]c3cnc(C(=O)OC(C)(C)C)cc3c2c1` [WY-A-99-2 (WYS8)], the Ki ([7]; Ki α3) is listed as 1.63 nM, the Ki ([8]; Ki α6) is listed as 1980 nM and the “pharmacological properties compared with classical benzodiazepine receptor antagonists” value [12] is listed as “near GABA neutral antagonists”. For the same compound, the Ki ([2]; Figure 33, αxβ3γ2, read-out: Affinity Ki α5) was 1470 nM, the Ki ([3]; Figure 33, αxβ3γ2, read-out: Affinity Ki α1) was 0.972 nM and the Ki [13] was 2000 nM. For the same compound, the Ki [6, 14] was 1980 nM and the Ki ([11]; Ki α5) was 208 nM and 51 nM.

In the case of `COC(=O)c1cc2c(cn1)[nH]c1ccccc12` [-CCM, methyl beta-carboline-3-carboxylate], the modulation ([12]; Supplement Table 1) is given as “inverse agonist”.

In the case of `CCCC(=O)c1cc2c(cn1)[nH]c1ccc(F)cc12` [CM-A57], the Ki ([7]; read-out: Ki α3) is given as 40 nM, the Ki ([8]; read-out: Ki α6) is given as 1000 nM and the Ki ([1]; read-out: Affinity Ki α3) is given as 40 nM. The Ki ([9]; read-out: Ki α1) was 3.7 nM, the Ki ([10]; read-out: Ki α2) was 27 nM and the Ki ([2]; read-out: Affinity Ki α5) was 254 nM. For the same compound, the Ki ([3]; read-out: Affinity Ki α1) was 3.7 nM, the Ki ([5]; read-out: Affinity Ki α2) was 27 nM and the Ki ([6]; read-out: Affinity Ki α6) was greater than 2500 nM. For the same compound, the Ki ([11]; read-out: Ki α5) was 254 nM.
